Drawing on patent US9346815B2, “5-chloro-2-difluoromethoxyphenyl pyrazolopyrimidine compounds, compositions and methods of use thereof” (Genentech, Inc., priority 2014, dated 2016), this text covers Ki and EC50 for 20 compounds.

In test [1] the target is isolated recombinant JAK1 kinase domain (Homo sapiens (Human), UniProt P23458). The test is described as follows: JAK1 enzyme assay (Caliper LabChip, peptide phosphorylation). As to conditions: isolated recombinant JAK1 kinase domain, 25 μM ATP. The class given is biochemical.
Sequence of isolated recombinant JAK1 kinase domain (P23458 875-1153): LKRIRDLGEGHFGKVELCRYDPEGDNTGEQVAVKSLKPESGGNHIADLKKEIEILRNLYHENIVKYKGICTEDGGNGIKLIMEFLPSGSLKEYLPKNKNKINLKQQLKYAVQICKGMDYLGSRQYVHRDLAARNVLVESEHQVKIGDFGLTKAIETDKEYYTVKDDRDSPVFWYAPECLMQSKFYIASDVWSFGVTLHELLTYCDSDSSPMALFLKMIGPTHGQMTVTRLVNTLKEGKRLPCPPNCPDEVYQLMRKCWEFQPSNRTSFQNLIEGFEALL
Test [2] relates to JAK1-dependent STAT6 phosphorylation downstream of IL-13 stimulation in TF-1 human erythroleukemia cells. Description: JAK1 pathway assay in TF-1 cells (IL-13-pSTAT6, MSD). The class given is cell-based. As to conditions: Homo sapiens, TF-1, TF-1 cells, read-out: IL13-pSTAT6 EC50_TF-1. Summed up: (§1)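 Cells were preincubated with compounds (0.2% DMSO) for 30 min (TF-1, GM-CSF-starved overnight, serum-free OptiMEM, 300,000 cells/well) or 1 h (BEAS-2B, complete medium, 100,000 cells/well) at 37 °C.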

For test [3], the system named is JAK1-dependent STAT6 phosphorylation downstream of IL-13 stimulation in BEAS-2B human bronchial epithelial cells. Description: JAK1 pathway assay in BEAS-2B cells (IL-13-pSTAT6, MSD). The class given is cell-based. Particulars: read-out: IL13-pSTAT6 EC50 (uM)_BEAS-2B. Summed up: as §1
For test [4], the target named is isolated recombinant JAK2 kinase domain (Homo sapiens (Human), UniProt O60674). Description: JAK2 enzyme assay (Caliper LabChip, peptide phosphorylation). Particulars: 25 μM ATP. The class given is biochemical.
Sequence of isolated recombinant JAK2 kinase domain (O60674 849-1124): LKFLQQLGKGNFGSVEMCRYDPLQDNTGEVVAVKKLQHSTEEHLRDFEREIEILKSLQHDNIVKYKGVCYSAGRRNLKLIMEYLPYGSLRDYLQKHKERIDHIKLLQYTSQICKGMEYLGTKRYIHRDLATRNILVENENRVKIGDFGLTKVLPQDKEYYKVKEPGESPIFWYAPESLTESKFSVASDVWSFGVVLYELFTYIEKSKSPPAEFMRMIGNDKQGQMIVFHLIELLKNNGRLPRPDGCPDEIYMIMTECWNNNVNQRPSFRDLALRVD

Structures are written as SMILES.

In the case of `CN1CC2CN(C(=O)Cn3cc(NC(=O)c4c(N)nn5cccnc45)c(-c4cc(Cl)ccc4OC(F)F)n3)CC2C1` (stereo not drawn) [Example 9, 2-amino-N-[3-[5-chloro-2-(difluoromethoxy)phenyl]-1-[2-(2-methyl-1,3,3a,4,6,6a-hexahydropyrrolo[3,4-c]pyrrol-5-yl)-2-oxo-ethyl]pyrazol-4-yl]pyrazolo[1,5-a]pyrimidine-3-carboxamide], the values for the Ki in test [1] and in test [4] were 0.71 nM and 0.28 nM, respectively. Also, the EC50 turned out to be 15.6 nM in test [2] and 0.554 µM in test [3].

Turning to `NC1CCN(C(=O)Cn2cc(NC(=O)c3cnn4cccnc34)c(-c3cc(Cl)ccc3OC(F)F)n2)CC1` [Example 66, N-[1-[2-(4-amino-1-piperidyl)-2-oxo-ethyl]-3-[5-chloro-2-(difluoromethoxy)phenyl]pyrazol-4-yl]pyrazolo[1,5-a]pyrimidine-3-carboxamide], in test [1], the Ki stood at 0.58 nM. The EC50 stood at 35.6 nM in test [2] and 0.335 µM in test [3].

On to `C[N+](C)(CCCc1ccccc1)C1CCN(C(=O)Cn2cc(NC(=O)c3cnn4cccnc34)c(-c3cc(Cl)ccc3OC(F)F)n2)CC1` [Example 124, [1-[2-[3-[5-chloro-2-(difluoromethoxy)phenyl]-4-(pyrazolo[1,5-a]pyrimidine-3-carbonylamino)pyrazol-1-yl]acetyl]-4-piperidyl]-dimethyl-(3-phenylpropyl)ammonium], for which the EC50 in test [2] came to 87.9 nM; in test [3], 0.535 µM.

On to `CN(C)C1CCN(c2nc(-c3cc(Cl)ccc3OC(F)F)c(NC(=O)c3cnn4cccnc34)s2)CC1` [Example 188, Pyrazolo[1,5-a]pyrimidine-3-carboxylic acid [4-(5-chloro-2-difluoromethoxy-phenyl)-2-(4-dimethylamino-piperidin-1-yl)-thiazol-5-yl]-amide], for which, in test [1], the Ki amounted to 1.26 nM. Besides, the results for the EC50 in test [2] and in test [3] were 5.8 nM and 0.0349 µM, respectively.

Take `COCCN1CCN(C(=O)Cn2cc(NC(=O)c3cnn4cccnc34)c(-c3cc(Cl)ccc3OC(F)F)n2)CC1` [Example 229, N-[3-[5-chloro-2-(difluoromethoxy)phenyl]-1-[2-[4-(2-methoxyethyl)piperazin-1-yl]-2-oxo-ethyl]pyrazol-4-yl]pyrazolo[1,5-a]pyrimidine-3-carboxamide]: the inhibitory constant (Ki) in test [1] was found to be 0.38 nM. In addition, the values for the EC50 in test [2] and in test [3] were 3.3 nM and 0.0516 µM, respectively.

For the compound `O=C(Nc1cn(CC(=O)N2CCCCC2)nc1-c1cc(Cl)ccc1OC(F)F)c1cnn2cccnc12` [Example 308, N-[3-[5-chloro-2-(difluoromethoxy)phenyl]-1-[2-oxo-2-(1-piperidyl)ethyl]pyrazol-4-yl]pyrazolo[1,5-a]pyrimidine-3-carboxamide], the EC50 was 1.5 nM in test [2] and 0.0236 µM in test [3]. In addition, in test [4], the Ki came out at 0.55 nM.

Regarding `O=C(Nc1cn(CC(=O)N2CCC(N3CC4CC(C3)O4)CC2)nc1-c1cc(Cl)ccc1OC(F)F)c1cnn2cccnc12` [Example 450, N-(1-(2-(4-(6-oxa-3-aza-bicyclo[3.1.1]heptan-3-yl)piperidin-1-yl)-2-oxoethyl)-3-(5-chloro-2-(difluoromethoxy)phenyl)-1H-pyrazol-4-yl)pyrazolo[1,5-a]pyrimidine-3-carboxamide], the inhibition constant (Ki) in test [1] came out at 0.37 nM; in test [4] it was 0.97 nM. In addition, the EC50 in test [3] worked out at 0.0126 µM.

`C[C@H]1COCCN1C1CCN(C(=O)Cn2cc(NC(=O)c3cnn4cccnc34)c(-c3cc(Cl)ccc3OC(F)F)n2)CC1` [Example 451, N-(3-(5-chloro-2-(difluoromethoxy)phenyl)-1-(2-(4-((S)-3-methyl-morpholino)piperidin-1-yl)-2-oxoethyl)-1H-pyrazol-4-yl)pyrazolo[1,5-a]pyrimidine-3-carboxamide]: the Ki in test [1] was found to be 0.45 nM; in test [4], 1.56 nM. In addition, the EC50 in test [3] was 0.0201 µM.

With `O=C(Nc1cn(Cc2cn(C3CCNCC3)nn2)nc1-c1cc(Cl)ccc1OC(F)F)c1cnn2cccnc12` [Example 452, N-(3-(5-chloro-2-(difluoromethoxy)phenyl)-1-((1-(piperidin-4-yl)-1H-1,2,3-triazol-4-yl)methyl)-1H-pyrazol-4-yl)pyrazolo[1,5-a]pyrimidine-3-carboxamide], the inhibition constant (Ki) in test [1] is 0.71 nM; in test [4], 0.65 nM. Moreover, the EC50 in test [3] was 0.0809 µM.

`O=C(Nc1cn(CC(=O)N2CCC(OCC(=O)N3CCOCC3)CC2)nc1-c1cc(Cl)ccc1OC(F)F)c1cnn2cccnc12` [Example 453, N-(3-(5-chloro-2-(difluoromethoxy)phenyl)-1-(2-(4-(2-morpholino-2-oxoethoxy)piperidin-1-yl)-2-oxoethyl)-1H-pyrazol-4-yl)pyrazolo[1,5-a]pyrimidine-3-carboxamide]: the Ki in test [1] is 0.41 nM; in test [4], 1.3 nM. The EC50 in test [3] was 0.0304 µM.

For the compound `CN1CCC(n2cc(Cn3cc(NC(=O)c4cnn5cccnc45)c(-c4cc(Cl)ccc4OC(F)F)n3)nn2)CC1` [Example 454, N-(3-(5-chloro-2-(difluoromethoxy)phenyl)-1-((1-(1-methylpiperidin-4-yl)-1H-1,2,3-triazol-4-yl)methyl)-1H-pyrazol-4-yl)pyrazolo[1,5-a]pyrimidine-3-carboxamide], the inhibition constant (Ki) in test [1] is 0.4 nM; in test [4], 0.23 nM. Further, the EC50 in test [3] worked out at 0.0235 µM.

Turning to `O=C(Nc1cn(Cc2cn(C3CCN(C4CCOC4)CC3)nn2)nc1-c1cc(Cl)ccc1OC(F)F)c1cnn2cccnc12` (stereo not drawn) [Example 455, N-(3-(5-chloro-2-(difluoromethoxy)phenyl)-1-((1-(1-(tetrahydrofuran-3-yl)piperidin-4-yl)-1H-1,2,3-triazol-4-yl)methyl)-1H-pyrazol-4-yl)pyrazolo[1,5-a]pyrimidine-3-carboxamide], the Ki in test [1] was 0.3 nM; in test [4], 0.15 nM. Also, the EC50 in test [3] worked out at 0.021 µM.

`N#CCCCNC1CCN(C(=O)Cn2cc(NC(=O)c3cnn4cccnc34)c(-c3cc(Cl)ccc3OC(F)F)n2)CC1` [Example 456, N-(3-(5-chloro-2-(difluoromethoxy)phenyl)-1-(2-(4-(3-cyanopropyl-amino)piperidin-1-yl)-2-oxoethyl)-1H-pyrazol-4-yl)pyrazolo[1,5-a]pyrimidine-3-carboxamide]: the values for the inhibition constant (Ki) in test [1] and in test [4] were 0.49 nM and 1.11 nM, respectively. In addition, the EC50 in test [3] came out at 0.041 µM.

In the case of `O=C(Nc1cn(CC(=O)N2CCN(CC3CCOCC3)CC2)nc1-c1cc(Cl)ccc1OC(F)F)c1cnn2cccnc12` [Example 458, N-(3-(5-chloro-2-(difluoromethoxy)phenyl)-1-(2-oxo-2-(4-((tetrahydro-2H-pyran-4-yl)methyl)piperazin-1-yl)ethyl)-1H-pyrazol-4-yl)pyrazolo[1,5-a]pyrimidine-3-carboxamide], the Ki in test [1] was 0.47 nM; in test [4], 0.9 nM. Besides, the EC50 in test [3] turned out to be 0.0081 µM.

With `O=C(Nc1cn(CC(=O)N2CCN(CCN3CCSCC3)CC2)nc1-c1cc(Cl)ccc1OC(F)F)c1cnn2cccnc12` [Example 460, N-(3-(5-chloro-2-(difluoromethoxy)phenyl)-1-(2-oxo-2-(4-(2-thiomorpholinoethyl)piperazin-1-yl)ethyl)-1H-pyrazol-4-yl)pyrazolo[1,5-a]pyrimidine-3-carboxamide], the values for the Ki in test [1] and in test [4] were 0.39 nM and 1.1 nM, respectively. Besides, the EC50 in test [3] amounted to 0.0068 µM.

As for `N#CCCCN1CCN(C(=O)Cn2cc(NC(=O)c3cnn4cccnc34)c(-c3cc(Cl)ccc3OC(F)F)n2)CC1` [Example 461, N-(3-(5-chloro-2-(difluoromethoxy)phenyl)-1-(2-(4-(3-cyanopropyl)piperazin-1-yl)-2-oxoethyl)-1H-pyrazol-4-yl)pyrazolo[1,5-a]pyrimidine-3-carboxamide], the inhibitory constant (Ki) is 0.4 nM in test [1] and 0.84 nM in test [4]. For the same compound, the EC50 in test [3] stood at 0.0117 µM.

Regarding `N#CC1CCN(C2CCN(C(=O)Cn3cc(NC(=O)c4cnn5cccnc45)c(-c4cc(Cl)ccc4OC(F)F)n3)CC2)CC1` [Example 462, N-(3-(5-chloro-2-(difluoromethoxy)phenyl)-1-(2-(4-cyano-1,4′-bipiperidin-1′-yl)-2-oxoethyl)-1H-pyrazol-4-yl)pyrazolo[1,5-a]pyrimidine-3-carboxamide], the results for the Ki in test [1] and in test [4] were 0.38 nM and 0.86 nM, respectively. Moreover, the EC50 in test [3] was 0.0108 µM.

On to `CC(F)(F)CNC1CCN(C(=O)Cn2cc(NC(=O)c3cnn4cccnc34)c(-c3cc(Cl)ccc3OC(F)F)n2)CC1` [Example 463, N-(3-(5-chloro-2-(difluoromethoxy)phenyl)-1-(2-(4-(2,2-difluoro-propylamino)piperidin-1-yl)-2-oxoethyl)-1H-pyrazol-4-yl)pyrazolo[1,5-a]pyrimidine-3-carboxamide], for which the Ki in test [1] was determined as 0.31 nM; in test [4], 0.7 nM. The EC50 in test [3] was 0.007 µM.

Regarding `CN(CCCC#N)C1CCN(C(=O)Cn2cc(NC(=O)c3cnn4cccnc34)c(-c3cc(Cl)ccc3OC(F)F)n2)CC1` [Example 464, N-(3-(5-chloro-2-(difluoromethoxy)phenyl)-1-(2-(4-((3-cyanopropyl)(methyl)amino)piperidin-1-yl)-2-oxoethyl)-1H-pyrazol-4-yl)pyrazolo[1,5-a]pyrimidine-3-carboxamide], the inhibition constant (Ki) in test [1] was found to be 0.49 nM; in test [4], 1.41 nM. Moreover, in test [3], the EC50 was determined as 0.0095 µM.

`CN(CC(C)(C)C#N)C1CCN(C(=O)Cn2cc(NC(=O)c3cnn4cccnc34)c(-c3cc(Cl)ccc3OC(F)F)n2)CC1` [Example 465, N-(3-(5-chloro-2-(difluoromethoxy)phenyl)-1-(2-(4-((2-cyano-2-methylpropyl)(methyl)amino)piperidin-1-yl)-2-oxoethyl)-1H-pyrazol-4-yl)pyrazolo[1,5-a]pyrimidine-3-carboxamide]: the Ki in test [1] was found to be 0.24 nM; in test [4], 0.56 nM. Also, the EC50 in test [3] stood at 0.0114 µM.
